# Experimental data: patent EP1094830B1, “USE OF COMPOSITION COMPRISING AT LEAST ONE SUBSTANCE WITHIN THE GROUP GnRH-ANALOGUES FOR TREATMENT OF OBSESSIVE-COMPULSIVE DISORDER (OCD)” (Läkartjänster I Västsverige AB, priority 1998, dated 2005)
# “Also recorded” adds a separate entry of the source.
# Assays:
# OCD-symptoms [1] = experiment: Case study: treatment of a patient with a severe form of OCD; assay type: in vivo, man; settings: earlier treatment of the same patient(s) with anti-androgenic drugs, before the GnRH-analogue
# Protocol: The GnRH-analogue triptorelin is available in a pharmaceutical preparation (Decapeptyl® Depot). In the use of this preparation, an injection is administered containing triptorelin embonate in a dose corresponding to 3.75 mg triptorelin. Injections with this dose are given intramuscularly. They should be repeated every fourth week from the first injection. […] A then person was referred to a psychiatric specialist clinic from another qualified psychiatrist for evaluation and treatment of a severe condition of OCD. […] The situation when the patient came to the clinic was that they had sickness pension since more than ten years. They lived alone in a small apartment which they hardly ever left. Obsessions and compulsive rituals occupied most of their time. They repeated against their will meaningless strings of words silently during several hours every day. They felt they had to read the newspaper according to certain ritual patterns; if they did anything wrong, they had to start again from the beginning. Sometimes, it took them the whole day to read the newspaper. […] Among other things, they placed their books so that the covers were strictly oriented along north-south lines. Their contacts with other persons were highly restraint and mainly limited to some relatives. […] The clinical diagnosis was that they suffered from a very serious form of OCD. […]
# [2] = system: symptoms of androgenic hyperactivity; experiment: Case study: treatment of the patient's symptoms of androgenic hyperactivity; assay type: in vivo, man; settings: same patient, before triptorelin
# Protocol: An endocrinological investigation was performed, based upon their symptoms of androgenic hyperactivity.
# [3] = system: obsessive-compulsive neurosis (nowadays called obsessive-compulsive disorder, OCD); settings: cited from earlier work
# OCD-symptoms [4] = experiment: Case study: treatment of a patient with a severe form of OCD; assay type: in vivo, man
# Protocol: The GnRH-analogue triptorelin is available in a pharmaceutical preparation (Decapeptyl® Depot). In the use of this preparation, an injection is administered containing triptorelin embonate in a dose corresponding to 3.75 mg triptorelin. Injections with this dose are given intramuscularly. They should be repeated every fourth week from the first injection.
# A detailed case study of the treatment of a patient with a severe form of OCD is disclosed in the following, as supporting evidence of the effect of the method.
# A then person was referred to a psychiatric specialist clinic from another qualified psychiatrist for evaluation and treatment of a severe condition of OCD.
# The situation when the patient came to the clinic was that they had sickness pension since more than ten years. They lived alone in a small apartment which they hardly ever left. Obsessions and compulsive rituals occupied most of their time. They repeated against their will meaningless strings of words silently during several hours every day. They felt they had to read the newspaper according to certain ritual patterns; if they did anything wrong, they had to start again from the beginning. Sometimes, it took them the whole day to read the newspaper. […] Among other things, they placed their books so that the covers were strictly oriented along north-south lines. Their contacts with other persons were highly restraint and mainly limited to some relatives.
# The clinical diagnosis was that they suffered from a very serious form of OCD. They were also found to be intelligent without any signs of any other mental illness or personality disorder. Thus, it was a clearly defined case of OCD.
# During long periods of time the patient had been treated with the drugs which presently are considered to have the best effect against OCD. In the treatment of the patient they had also been given supportive psychotherapy.
# In order to overcome this, treatment with the long-acting GnRH-analogue triptorelin (Decapeptyl® Depot) was given every fourth week as deep intramuscular depot injections with a dose corresponding to 3.75 mg triptorelin in each injection.
# [5] = after another two months (four months in all), 3.75 mg intramuscular every fourth week
Molecule,effect on OCD (OCD-symptoms [1]),effect on symptoms of androgenic hyperactivity [2],"effect in treatment of obsessive-compulsive neurosis ([3]; a few patients, Casas et al. 1986)",effect on OCD ([3]; later investigations by other researchers),effect on OCD-symptoms (OCD-symptoms [4]; [5]),obsessive thoughts (OCD-symptoms [4]; [5]),recovery from very severe form of OCD (OCD-symptoms [4]; after three months of treatment),"effect on OCD-symptoms (OCD-symptoms [4]; after two months treatment, 3.75 mg intramuscular every fourth week)","effect on OCD-symptoms (OCD-symptoms [4]; initially during treatment, 3.75 mg triptorelin deep intramuscular depot injection every fourth week)"
CC(=O)O[C@]1(C(C)=O)CC[C@H]2[C@@H]3C=C(Cl)C4=CC(=O)[C@@H]5C[C@@H]5[C@]4(C)[C@H]3CC[C@@]21C [cyproterone acetate],without success; also recorded: without any major improvement; also recorded: without any obvious effect on their OCD,without any significant effects,effective,failed to demonstrate any effect,–,–,–,–,–
triptorelin,–,–,–,–,dramatically better,all obsessive thoughts had disappeared,substantially recovered,began to feel better,accentuation of the patients OCD-symptoms
